In paper PMC7756392, “Syntheses of Thailandepsin B Pseudo‐Natural Products: Access to New Highly Potent HDAC Inhibitors via Late‐Stage Modification” (Chemistry (Weinheim an Der Bergstrasse, Germany), 2020):

Columns and labels:
acetylated histone 3 = assay: Western blot, acetyl-histone 3 in HL60 cells; type: cell-based
Method: (§1) LABTECH POLARstar OPTIMA plate reader (BMG Labtechnologies, Germany).
(§2) Western Blot: 2.5 x 10^5 HL60 cells were seeded in sterile 12-well plates and incubated with different concentrations of compound or DMSO for 4 h. Cells were washed with cold PBS, lysed with 90 µL SDS sample buffer (Cell Signaling, 62.5 mM Tris-HCl (pH 6.8 at 25°C), 2% w/v SDS, 10% v/v glycerol, 50 mM dithiothreitol, 0.01% bromophenol blue), shortly sonicated and heated to 95°C for 5 min. Cell extracts were used directly for SDS-PAGE or kept frozen at -20 […]
(§3) For the SDS-PAGE, 7 µL cell lysate were loaded on a 12.5% gel and the gel was run at 150V for approximately 1 h, followed by the transfer to a nitrocellulose membrane. The membrane was blocked with 5% milk in TBS-T 0.1% for 1 h at room temperature and washed (3 x 5 min) with TBS-T before adding the antibodies. Western blot analysis was performed with the following primary antibodies: anti-acetylated α-tubulin (Sigma-Aldrich, 1:1000), anti-acetyl-histone 3 (Millipore, 1:2000) and anti-GAPDH (Sigma-Aldrich, 1:5000) and secondary antibodies: anti-mouse-IgG-HRP (Sigma-Aldrich, 1:10000) and anti-rabbit IgG-HRP (Sigma- […]
(§4) Aldrich, 1:5000). The antibodies were all diluted in 3% milk in TBS-T 0.1%. Detection was performed via enhanced chemiluminescence (ECL Prime) using a FUSION-SL (PEQLAB) and the FUSION-CAPT software.
(§5) Figure 4: Western blot of acetyl-α-tubulin, acetyl-H3 and GAPDH after treatment of HL60 cells with different concentrations of 33 or DMSO for 4 h. GAPDH was used as loading control, DMSO as negative control. […]

acetylated α-tubulin = assay: Western blot, acetylated α-tubulin in HL60 cells; type: cell-based; conditions: for ac-tubulin: HL60 cells, 4 h
Method: as §1, §2, §3, §4, §5

SMILES: CCCC[C@H]1NC(=O)C[C@@H](/C=C/CCSC(C)=O)OC(=O)C[C@H](O)[C@@H]([C@@H](C)CC)NC(=O)[C@@H](C)NC1=O [compound 33]
- isotype selectivity for class I HDACs in cells (western blot) (acetylated histone 3; HL60 cells, 4 h): selective inhibition of class I HDACs
- ac-histone 3 (acetylated histone 3; HL60 cells, 4 h, 0.0001 µM): 1.1%
- ac-histone 3 (acetylated histone 3; HL60 cells, 4 h, 0.001 µM): 0.9%
- ac-histone 3 (acetylated histone 3; HL60 cells, 4 h, 0.01 µM): 1.8%
- ac-histone 3 (acetylated histone 3; HL60 cells, 4 h, 0.1 µM): 4.4%
- levels of acetylated histone 3 with increasing inhibitor concentration (in words) (acetylated histone 3; western blot): increasing levels
- ac-tubulin (acetylated α-tubulin; 0.0001 µM): 1.1%
- ac-tubulin (acetylated α-tubulin; 0.01 µM): 1.1%
- ac-tubulin (acetylated α-tubulin; 0.1 µM): 1.3%
- ac-tubulin (acetylated α-tubulin; 1 µM): 1.4%
- levels of acetylated α-tubulin with increasing inhibitor concentration (in words) (acetylated α-tubulin; western blot): Constant levels
